Measured values reported in patent publication US4436726A, “N-Acylpeptide compound, processes for the preparation thereof and the pharmaceutical compositions” (Fujisawa Pharmaceutical Co., Ltd., priority 1980, dated 1984).

Key:
[1] = tested on: complement serum (guinea pig complement); experiment: Anticomplementary activity (inhibition of hemolysis of sensitized erythrocytes); assay type: biochemical; details: 50% hemolysis inhibition, 37° C.
Experimental: The anticomplementary activity of the test compound was measured according to the test method as described in Experimental Immunochemistry, edited by E. A. Kabat and M. M. Mayer, 2nd ed., Springfield, III: C. C. Thomas (1961) pages 133-240.
A mixture of 1 ml of a 5-fold diluted solution of a Veronal buffer solution containing 1.5×10^-4 M Ca^2+ and 5×10^-4 M Mg^2+ and isotonic gelatin, 1.5 ml of complement serum (guinea pig complement) diluted 400 times with a physiological saline solution and 0.05 ml of a solution of a test compound (in this case, a test compound was dissolved in a physiological saline solution) was incubated at 37° C. for 30 minutes. To the said mixture there was added 0.4 ml of sensitized erythrocytes suspension containing 5×10^8 cells/ml and said mixture was incubated at 37° C. further for 60 minutes. After the incubation, the mixture was centrifuged in 3,000 rpm at 4° C. for 10 minutes.
The results are expressed in Table 1 as the concentration of each drugs inhibiting the hemolysis activity by 50% (IC50).

[2] = tested on: nephrotoxin-type nephritis; experiment: Therapeutic effect on nephrotoxin-type nephritis (modified type of Masugi nephritis), proteinuria level; assay type: in vivo; details: rats
Experimental: (i) Preparation of anti-rat kidney rabbit serum.
The kidneys of SD male rats weighing about 250-300 g were sufficiently perfused with 0.9% saline. The renal cortical tissue was homogenized with 0.9% saline using a Teflon homogenizer. 4 ml of the homogenate was then suspended into the same volume of Freund's complete adjuvant. 2 ml of the said mixture was given subcutaneously to male rabbits weighing about 3 kg. 4 weeks later, 2 ml of the mixture was given intramuscularly as a booster. At the 5th week, a blood sample was taken. The serum separated by centrifugation at 3,000 rpm for 30 minutes was inactivated by heating at 56° C. for 30 minutes and preserved by freezing until just before use.
(ii) Induction of experimental nephritis (modified type of Masugi nephritis)
Experimental nephritis was induced in groups of 5 male rats weighing about 150-200 g by a single intravenous injection of 1 ml of the anti-kidney serum obtained in the above procedures.
(iii) Evaluation of anti-nephritic effect of drugs.
Drugs were given to a group of 5 rats once a day for 5 consecutive days from the 2nd day before the injection of anti-kidney serum. Each drug was dissolved into 3% sodium bicarbonate solution and given intraperitoneally in a volume of 1 ml/rat. In addition to the above drug-treated nephritic group, the non-treated-nephritic group (control) was set in the experiment. The proteinuria level (total) amount excreted into the urine over a 12 hour period) was measured using turbidometry employing bovine serum albumin as a control by means of sulfosalicylic acid.

[3] = 10 mg/kg intraperitoneally once a day for 5 days
[4] = 30 mg/kg intraperitoneally once a day for 5 days

CCCCCCCCCCCCCCCC(=O)OC(CCCCCCCCCCCCCCC)CC(=O)NCC(=O)N[C@@H](CO)C(=O)O (stereo partly drawn) [Example 2, N-[N-(3-hexadecanoyloxyoctadecanoyl)glycyl]-L-serine]
Anticomplementary Activity (IC50) [1]: 0.03 to 0.04 µg/mL
protein uria level, 1st day [2, 3]: 5.9 mg/12 hours
protein uria level, 4th day [2, 3]: 3.7 mg/12 hours
protein uria level, 7th day [2, 3]: 39.6 mg/12 hours
protein uria level, 1st day [2, 4]: 3.5 mg/12 hours
protein uria level, 4th day [2, 4]: 5.5 mg/12 hours
protein uria level, 7th day [2, 4]: 16.5 mg/12 hours
